Values joined by “and” are separate entries in the source; they are usually repeats but may differ in a detail not shown here. Identical values can stand only once.
How the values were obtained:
[1] = target: T1, Retinoic acid receptor RXR-gamma (Homo sapiens, UniProt P48443); test: Effective concentrations against Retinoic acid receptor RXR-gamma
T1 sequence (P48443 whole entry): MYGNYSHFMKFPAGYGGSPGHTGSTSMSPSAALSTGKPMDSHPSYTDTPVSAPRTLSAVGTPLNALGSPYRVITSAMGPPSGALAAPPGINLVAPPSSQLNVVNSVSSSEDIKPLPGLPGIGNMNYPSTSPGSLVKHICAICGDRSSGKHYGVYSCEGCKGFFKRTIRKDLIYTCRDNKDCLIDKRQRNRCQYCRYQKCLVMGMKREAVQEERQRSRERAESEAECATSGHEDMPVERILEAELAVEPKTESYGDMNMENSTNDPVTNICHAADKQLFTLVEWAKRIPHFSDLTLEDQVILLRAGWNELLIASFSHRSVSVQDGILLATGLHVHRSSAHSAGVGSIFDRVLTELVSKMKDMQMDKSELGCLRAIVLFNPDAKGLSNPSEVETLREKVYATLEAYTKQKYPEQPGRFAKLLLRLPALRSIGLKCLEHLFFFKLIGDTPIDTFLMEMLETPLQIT

[2] = target: T2, Retinoic acid receptor RXR-beta (Homo sapiens, UniProt P28702); test: Effective concentrations against Retinoid X receptor RXR beta
T2 sequence (P28702 whole entry): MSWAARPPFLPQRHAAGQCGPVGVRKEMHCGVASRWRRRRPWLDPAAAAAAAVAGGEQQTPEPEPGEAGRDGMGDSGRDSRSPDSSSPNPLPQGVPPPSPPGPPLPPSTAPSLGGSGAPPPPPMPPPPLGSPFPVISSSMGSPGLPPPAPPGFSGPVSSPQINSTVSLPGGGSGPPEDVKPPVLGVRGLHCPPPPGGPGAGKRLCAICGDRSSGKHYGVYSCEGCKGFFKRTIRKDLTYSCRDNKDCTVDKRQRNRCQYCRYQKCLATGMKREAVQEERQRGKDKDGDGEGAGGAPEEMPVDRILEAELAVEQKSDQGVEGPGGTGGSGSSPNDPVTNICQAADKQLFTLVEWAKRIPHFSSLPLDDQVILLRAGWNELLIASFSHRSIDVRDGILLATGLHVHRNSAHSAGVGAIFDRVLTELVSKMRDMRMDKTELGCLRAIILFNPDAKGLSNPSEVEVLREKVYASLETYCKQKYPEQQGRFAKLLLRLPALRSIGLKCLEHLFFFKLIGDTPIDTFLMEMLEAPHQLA

[3] = target: T3, Retinoic acid receptor RXR-alpha (Homo sapiens, UniProt P19793); test: Effective concentration against Retinoic acid receptor RXR-alpha
T3 sequence (P19793 whole entry): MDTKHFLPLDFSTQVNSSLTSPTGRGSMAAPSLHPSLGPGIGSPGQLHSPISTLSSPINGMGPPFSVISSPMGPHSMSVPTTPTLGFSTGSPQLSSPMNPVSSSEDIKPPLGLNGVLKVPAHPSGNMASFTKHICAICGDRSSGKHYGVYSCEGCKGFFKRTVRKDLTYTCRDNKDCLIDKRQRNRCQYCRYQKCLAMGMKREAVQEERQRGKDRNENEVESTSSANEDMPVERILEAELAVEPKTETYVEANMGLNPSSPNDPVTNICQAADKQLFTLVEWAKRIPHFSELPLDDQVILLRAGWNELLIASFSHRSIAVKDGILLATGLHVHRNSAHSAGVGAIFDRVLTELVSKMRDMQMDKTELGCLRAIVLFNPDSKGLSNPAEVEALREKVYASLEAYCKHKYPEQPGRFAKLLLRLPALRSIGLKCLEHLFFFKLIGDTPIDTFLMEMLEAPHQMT

[4] = target: T2, Retinoic acid receptor RXR-beta; test: Effective concentrations against Retinoic acid receptor RXR-beta

| SMILES | EC50 [1] | EC50 [2] | EC50 [3] | EC50 [4] |
| --- | --- | --- | --- | --- |
| CC(/C=C/C1(c2cc3c(cc2C)C(C)(C)CCC3(C)C)OCCO1)=C\C(=O)O | 2.3 µM | 0.047 µM | 0.021 µM |  |
| C=C(c1ccc(C(=O)O)s1)c1cc2c(cc1C)C(C)(C)CCC2(C)C | 0.52 µM |  | 0.33 µM | 0.033 µM |
| Cc1cc2c(cc1C(=O)c1ccc(C(=O)O)s1)C(C)(C)CCC2(C)C | 0.3 µM |  | 2.2 µM | 1 µM |
| C/C=C(/c1ccc(C(=O)O)cc1)c1ccc2c(c1)C(C)(C)CCC2(C)C | 0.37 µM |  | 0.055 µM and 0.47 µM | 0.16 µM |
| CC(C)=C(/C=C/C(C)=C/C(=O)O)c1cc2c(cc1C)C(C)(C)CCC2(C)C |  |  | 0.2 µM |  |
| CC(C)=C(c1ccc(C(=O)O)cc1)c1ccc2c(c1)C(C)(C)CCC2(C)C |  |  | 0.086 µM |  |
| C/C=C(\c1ccc(C(=O)O)cc1)c1ccc2c(c1)C(C)(C)CCC2(C)C |  |  | 2.5 µM |  |
| CC(C)=C(/C=C/C(C)=C/C(=O)O)c1ccc2c(c1)C(C)(C)CCC2(C)C |  |  | 0.38 µM |  |

Results, then the compound that gave them:

| EC50 [1] | EC50 [2] | EC50 [3] | EC50 [4] | SMILES |
| --- | --- | --- | --- | --- |
|  |  | 0.034 µM |  | CC1(C)CCC(C)(C)c2cc(C3(c4ccc(C(=O)O)cc4)OCCO3)ccc21 |
|  |  | 0.63 µM and 0.54 µM |  | CC1(C)CCC(C)(C)c2cc(C3(c4ccc(C(=O)O)cc4)SCCCS3)ccc21 |
|  |  | 0.75 µM and 1.2 µM |  | CC1(C)CCC(C)(C)c2cc(C3(c4ccc(C(=O)O)cc4)OCCCO3)ccc21 |
|  |  | 0.074 µM |  | CC1(C)CCC(C)(C)c2cc(C3(c4ccc(C(=O)O)cc4)OCCS3)ccc21 (configuration not stated) |
|  |  | 3.1 µM |  | CC1(C)CCC(C)(C)c2cc(C(C)(C)c3ccc(C(=O)O)cc3)ccc21 |
| 2 µM |  | 2.5 µM | 2.7 µM | CC1(C)CCC(C)(C)c2cc(Cc3ccc(C(=O)O)cc3)ccc21 |
|  |  | 2.9 µM |  | CC1(C)CCC(C)(C)c2cc(C(O)c3ccc(C(=O)O)cc3)ccc21 (configuration not stated) |
|  |  | 0.3 µM |  | CC(c1ccc(C(=O)O)cc1)c1ccc2c(c1)C(C)(C)CCC2(C)C (configuration not stated) |
| 0.53 µM |  | 2.5 µM | 1.9 µM | CC1(C)CCC(C)(C)c2cc(Oc3ccc(C(=O)O)cc3)ccc21 |
|  |  | 0.17 µM |  | CC1(C)CCC(C)(C)c2cc(C3(c4ccc(C(=O)O)cc4)SCCS3)ccc21 |
|  |  | 0.055 µM |  | CC1(C)CCC(C)(C)c2cc(C3(c4ccc(C(=O)O)cc4)CC3)ccc21 |
|  |  | 0.27 µM |  | C=C(c1ccc(C(=O)O)cc1)c1ccc2c(c1)C(C)(C)CCC2(C)C |

Reference: ChEMBL document CHEMBL1128526, “Conformational effects on retinoid receptor selectivity. 2. Effects of retinoid bridging group on retinoid X receptor activity and selectivity” (J Med Chem, 1995)
